Reference: patent publication US11654196B2, “Dosing regimens for echinocandin class compounds” (priority 2012, dated 2023)
Where two headings read alike, the source gives them in different places. *1 amine or outer side, *2 acyl side, *3 side chain or, on linkers, in order; H or OH if unused. Where a SMILES comes first, the peptide text is derived from it. Bridges are numbered along the chain shown (N, C = ends). [ ]: non-standard residue; d: D form. The star is where a group is joined. pTerphenylCO(4''-OnC5H11) = CCCCCOc1ccc(-c2ccc(-c3ccc(C(=O)*)cc3)cc2)cc1; Orn(4R-OH,5R-OH) = O=C([C@H](C[C@@H](O)[C@@H](O)N[*:3])N[*:1])[*:2]; hTyr(3S-OH,4S-OH) = N[C@H](C(=O)O)[C@H](O)[C@@H](O)c1ccc(O)cc1; Pro(3S-OH,4S-Me) = C[C@H]1CN[C@H](C(=O)O)[C@H]1O; Hyp = O=C(O)[C@@H]1C[C@@H](O)CN1

Legend:
[1] = Pharmacokinetics (oral bioavailability) following oral administration in beagle dogs; type: in vivo; design: key to Improvement (ratio of % oral bioavailability to saline): NI = no improvement in oral bioavailability in comparison to saline; settings: for % BA in saline: oral about 7-10 mg/kg, formulation 11 (saline); for % BA / Improvement (ratio of % oral bioavailability to saline): oral
Procedure: Echinocandin class compounds were administered to beagle dogs weighing approximately 6-10 kg. Each animal received the appropriate prepared test article in a single oral capsule dose at a target dose level of about 7-10 mg/kg. Immediately after dosing, each animal was offered 20 mL-30 mL of water orally (Groups 1-4) or 30 mL of water orally to assist in swallowing the capsule.
Animals were treated and blood samples were drawn and analyzed as provided in Example 1.
The bioavailability of each oral dose formulation was estimated by comparison to intravenous plasma concentration data in dogs from Example 1. The results provided in Table 3 show the oral bioavailability for the echinocandin class compound in saline (formulation 11), and the improvement over saline with the use of a formulation of the invention.

[2] = Solubility in aqueous media of varying pH; type: physicochemical; settings: for solubility: ambient temperature, compound 22 as acetate salt, salt free equivalent
[3] = Stability in human plasma; type: in vitro ADME
Procedure: (§1) Stock solutions of compound 22 and anidulafungin were prepared in DMSO at a concentration of 1 mg/mL. Plasma samples were prepared by mixing plasma with 10% volume of 1 M sodium phosphate, pH 7.4, to minimize pH fluctuation, and stock solution to produce plasma samples containing approximately 10,000 ng/mL compound 22 or anidulafungin. For the stability experiments in PBS buffer, plasma was replaced with phosphate buffered saline, pH 7.4. The DMSO concentration was 1% in the final incubation. Multiple individual aliquots (0.5 mL each) were prepared, capped, and incubated at 37° C. At each stability time point, the reaction was stopped by removing the sample from the incubator and adding 0.5 mL of acetonitrile containing internal standard. Samples were centrifuged for approximately 5 minutes at 10000 rpm to precipitate the proteins. Stability was measured in five different matrices (i.e. rat plasma, dog plasma, monkey plasma, human plasma, and PBS). An aliquot (100 μL) of supernatant of each sample was assayed by HPLC. The percentage of anidulafungin and compound 22 remaining at each time point was calculated by dividing the peak area ratio at each time point by the peak area ratio at time zero.

[4] = Stability in monkey plasma; type: in vitro ADME
Procedure: as §1

[5] = Stability in phosphate buffered saline (PBS); type: physicochemical
Procedure: as §1

Stability in rat plasma = type: in vitro ADME
Procedure: as §1

[6] = Pharmacokinetics in chimpanzee, IV dose; settings: in vivo
Procedure: Pharmacokinetic studies were performed in six adult female chimpanzees. Two chimpanzees received 1-mg/kg IV dose of compound 22 formulated in 5% dextrose (60-minute infusion). Two chimpanzees received 10-mg/kg oral dose of compound 22 formulated in 5% citric acid (oral bolus). Two chimpanzees received 1-mg/kg IV dose of anidulafungin formulated as package label (5% dextrose, 60-minute infusion). Plasma samples were collected from all chimps for 10 days to 22 days. PK curves are depicted in FIGS. 16A, 16B, and 18. All pharmacokinetic calculations were performed using WinNonlin version 4.1 (Pharsight Corp) by noncompartmental analysis.

[7] = Circulating half-life in rat; type: in vivo; settings: assays conducted by applicant
[8] = Circulating half-life in dog; type: in vivo; settings: assays conducted by applicant
[9] = Circulating half-life in chimpanzee; type: in vivo; settings: assays conducted by applicant

Compound: CCCCCOc1ccc(-c2ccc(-c3ccc(C(=O)N[C@H]4C[C@@H](O)[C@@H](O)NC(=O)[C@@H]5[C@@H](O)[C@@H](C)CN5C(=O)[C@H]([C@@H](C)O)NC(=O)[C@H]([C@H](O)[C@@H](O)c5ccc(O)cc5)NC(=O)[C@@H]5C[C@@H](O)CN5C(=O)[C@H]([C@@H](C)O)NC4=O)cc3)cc2)cc1 [Anidulafungin, anidulafungin, reference compound] ({pTerphenylCO(4''-OnC5H11)}-[Orn(4R-OH,5R-OH)]T[Hyp][hTyr(3S-OH,4S-OH)]T[Pro(3S-OH,4S-Me)]; lactam 1-C)
- % BA in saline [1]: 7.80%
- % BA ([1]; formulation 1): (14.3%)
- Improvement (ratio of % oral bioavailability to saline) ([1]; formulation 1): 1.8
- Improvement (ratio of % oral bioavailability to saline) ([1]; formulation 2): NI
- % BA ([1]; formulation 3): (9.80%)
- Improvement (ratio of % oral bioavailability to saline) ([1]; formulation 3): 1.3
- Improvement (ratio of % oral bioavailability to saline) ([1]; formulation 4): NI^4
- % BA ([1]; formulation 5): (16.5%)
- Improvement (ratio of % oral bioavailability to saline) ([1]; formulation 5): 2.1
- Improvement (ratio of % oral bioavailability to saline) ([1]; formulation 6): NI
- solubility ([2]; Sterile Water for injection, read-out: Solubility): < 0.01 mg/mL
- solubility ([2]; aqueous buffer, Acetate buffer (0.01M, pH 4.5), read-out: Solubility): < 0.01 mg/mL
- solubility ([2]; aqueous buffer, Acetate buffer (0.01M, pH 5.5), read-out: Solubility): < 0.01 mg/mL
- solubility ([2]; aqueous buffer, Tris buffer (0.01M, pH 8.5), read-out: Solubility): < 0.01 mg/mL
- solubility ([2]; aqueous with cosolvent or surfactant or cyclodextrin, 90% Water:10% glycerol, read-out: Solubility): < 0.01 mg/mL
- % remaining ([3]; human plasma, 37° C., 0 h): 100%
- % remaining ([3]; human plasma, 37° C., 1 h): 102%
- % remaining ([3]; human plasma, 37° C., 2 h): 98.0%
- % remaining ([3]; human plasma, 37° C., 4 h): 61.8%
- % remaining ([3]; human plasma, 37° C., 8 h): 72.0%
- % remaining ([3]; human plasma, 37° C., 21 h): 51.2%
- % remaining ([3]; human plasma, 37° C., 44 h): 7.3%
- % remaining ([4]; monkey plasma, 37° C., 0 h): 100%
- % remaining ([4]; monkey plasma, 37° C., 1 h): 106%
- % remaining ([4]; monkey plasma, 37° C., 2 h): 111%
- % remaining ([4]; monkey plasma, 37° C., 4 h): 68.1%
- % remaining ([4]; monkey plasma, 37° C., 8 h): 76.0%
- % remaining ([4]; monkey plasma, 37° C., 21 h): 22.4%
- % remaining ([4]; monkey plasma, 37° C., 44 h): 13.8%
- % remaining ([5]; PBS pH 7.4, 37° C., 0 h): 100%
- % remaining ([5]; PBS pH 7.4, 37° C., 1 h): 100%
- % remaining ([5]; PBS pH 7.4, 37° C., 2 h): 97.8%
- % remaining ([5]; PBS pH 7.4, 37° C., 4 h): 87.4%
- % remaining ([5]; PBS pH 7.4, 37° C., 8 h): 86.0%
- % remaining ([5]; PBS pH 7.4, 37° C., 21 h): 68.9%
- % remaining ([5]; PBS pH 7.4, 37° C., 44 h): 41.9%
- % remaining (Stability in rat plasma; rat plasma, 37° C., 0 h): 100%
- % remaining (Stability in rat plasma; rat plasma, 37° C., 1 h): 84.3%
- % remaining (Stability in rat plasma; rat plasma, 37° C., 2 h): 76.5%
- % remaining (Stability in rat plasma; rat plasma, 37° C., 4 h): 45.6%
- % remaining (Stability in rat plasma; rat plasma, 37° C., 8 h): 23.2%
- % remaining (Stability in rat plasma; rat plasma, 37° C., 21 h): 7.3%
- % remaining (Stability in rat plasma; rat plasma, 37° C., 44 h): 7.4%
- clearance ([6]; female, chimpanzees, 1-mg/kg IV 60-minute infusion, mean of 2 chimps, read-out: Clearance (converted)): 0.417 mL/min/kg
- Half-life ([6]; female, chimpanzees, 1-mg/kg IV 60-minute infusion, mean of 2 chimps, read-out: Plasma half-life (IV) (converted)): 30 h
- Vd ([6]; female, chimpanzees, 1-mg/kg IV 60-minute infusion, mean of 2 chimps, read-out: Volume of distribution): 1.1 L/kg
- Half-life ([7]; in vivo, read-out: Half-life (converted)): 22 h
- Half-life ([8]; beagle, in vivo, read-out: Half-life (converted)): 12 h
- Half-life ([9]; in vivo, iv, 1 mg/kg, read-out: Half-life (converted)): 30 h

Compound: CC(=O)[O-].CCCCCOc1ccc(-c2ccc(-c3ccc(C(=O)NC4CC(O)C(OCC[N+](C)(C)C)NC(=O)C5C(O)C(C)CN5C(=O)C(C(C)O)NC(=O)C(C(O)C(O)c5ccc(O)cc5)NC(=O)C5CC(O)CN5C(=O)C(C(C)O)NC4=O)cc3)cc2)cc1 (stereo not shown) [Compound 22]
- % BA in saline [1]: 3.50%
- % BA ([1]; formulation 1): (8.21%)
- Improvement (ratio of % oral bioavailability to saline) ([1]; formulation 1): 2.3
- % BA ([1]; formulation 3): (9.76%)
- Improvement (ratio of % oral bioavailability to saline) ([1]; formulation 3): 2.8
- % BA ([1]; formulation 5): (12.3%)
- Improvement (ratio of % oral bioavailability to saline) ([1]; formulation 5): 3.5
- % BA ([1]; formulation 7): (12.2%)
- Improvement (ratio of % oral bioavailability to saline) ([1]; formulation 7): 3.5
- Improvement (ratio of % oral bioavailability to saline) ([1]; formulation 8): NI
- Improvement (ratio of % oral bioavailability to saline) ([1]; formulation 9): NI
- Improvement (ratio of % oral bioavailability to saline) ([1]; formulation 10): NI
- Improvement (ratio of % oral bioavailability to saline) ([1]; formulation 12): NI
- % BA ([1]; formulation 13): (8.80%)
- Improvement (ratio of % oral bioavailability to saline) ([1]; formulation 13): 2.5
- % BA ([1]; formulation 14): (15.0%)
- Improvement (ratio of % oral bioavailability to saline) ([1]; formulation 14): 4.3
- % BA ([1]; formulation 15): (13.4%)
- Improvement (ratio of % oral bioavailability to saline) ([1]; formulation 15): 3.8
- % BA ([1]; formulation 16): (5.50%)
- Improvement (ratio of % oral bioavailability to saline) ([1]; formulation 16): 1.5
- % BA ([1]; formulation 17): (11.8%)
- Improvement (ratio of % oral bioavailability to saline) ([1]; formulation 17): 3.3
- solubility ([2]; 90% Water:10% glycerol): >102.3 mg/mL
- solubility ([2]; Acetate buffer (0.01M, pH 4.5)): >145 mg/mL
- solubility ([2]; Acetate buffer (0.01M, pH 5.5)): >141 mg/mL
- solubility ([2]; Sterile Water for injection): >142 mg/mL
- solubility ([2]; Tris buffer (0.01M, pH 8.5)): >138 mg/mL
- Aqueous solubility compared with anidulafungin ([2]; variety of aqueous mediums): dramatically greater aqueous solubility than anidulafungin
- % remaining ([3]; human, plasma, 0 h): 100%
- % remaining ([3]; human, plasma, 1 h): 98.5%
- % remaining ([3]; human, plasma, 2 h): 101%
- % remaining ([3]; human, plasma, 4 h): 125%
- % remaining ([3]; human, plasma, 8 h): 97.5%
- % remaining ([3]; human, plasma, 21 h): 95.7%
- % remaining ([3]; human, plasma, 44 h): 93.3%
- % remaining ([4]; monkey, plasma, 0 h): 100%
- % remaining ([4]; monkey, plasma, 1 h): 109%
- % remaining ([4]; monkey, plasma, 2 h): 110%
- % remaining ([4]; monkey, plasma, 4 h): 143%
- % remaining ([4]; monkey, plasma, 8 h): 115%
- % remaining ([4]; monkey, plasma, 21 h): 104%
- % remaining ([4]; monkey, plasma, 44 h): 93.5%
- % remaining ([5]; buffer, 0 h, pH 7.4): 100%
- % remaining ([5]; buffer, 1 h, pH 7.4): 105%
- % remaining ([5]; buffer, 2 h, pH 7.4): 103%
- % remaining ([5]; buffer, 4 h, pH 7.4): 107%
- % remaining ([5]; buffer, 8 h, pH 7.4): 101%
- % remaining ([5]; buffer, 21 h, pH 7.4): 96.3%
- % remaining ([5]; buffer, 44 h, pH 7.4): 96.1%
- % remaining (Stability in rat plasma; rat, plasma, 0 h): 100%
- % remaining (Stability in rat plasma; rat, plasma, 1 h): 103%
- % remaining (Stability in rat plasma; rat, plasma, 2 h): 106%
- % remaining (Stability in rat plasma; rat, plasma, 4 h): 138%
- % remaining (Stability in rat plasma; rat, plasma, 8 h): 99.3%
- % remaining (Stability in rat plasma; rat, plasma, 21 h): 96.5%
- % remaining (Stability in rat plasma; rat, plasma, 44 h): 91.2%
- Clearance used to calculate human circulating concentrations ([6]; human): 0.0567 mL/min/kg
- Plasma half life used to calculate human circulating concentrations ([6]; human): 80 h
- Clearance compared with anidulafungin [6]: lower clearance
- Half-life compared with anidulafungin [6]: longer half-life
- Plasma half-life (IV) ([6]; iv): 81 h
- clearance ([6]; iv): 0.0567 mL/min/kg
- Half-life [7]: 30 h
- Half-life [8]: 53 h
- Half-life [9]: 81 h
